{"source": "ChEMBL document CHEMBL4376905", "about": "“Selective Estrogen Receptor Degraders for the Potential Treatment of Cancer” (ACS Med Chem Lett, 2020)", "key": {"[1]": {"target": "T1, Estrogen receptor (Homo sapiens) (UniProt P03372)", "T1 sequence (whole entry)": "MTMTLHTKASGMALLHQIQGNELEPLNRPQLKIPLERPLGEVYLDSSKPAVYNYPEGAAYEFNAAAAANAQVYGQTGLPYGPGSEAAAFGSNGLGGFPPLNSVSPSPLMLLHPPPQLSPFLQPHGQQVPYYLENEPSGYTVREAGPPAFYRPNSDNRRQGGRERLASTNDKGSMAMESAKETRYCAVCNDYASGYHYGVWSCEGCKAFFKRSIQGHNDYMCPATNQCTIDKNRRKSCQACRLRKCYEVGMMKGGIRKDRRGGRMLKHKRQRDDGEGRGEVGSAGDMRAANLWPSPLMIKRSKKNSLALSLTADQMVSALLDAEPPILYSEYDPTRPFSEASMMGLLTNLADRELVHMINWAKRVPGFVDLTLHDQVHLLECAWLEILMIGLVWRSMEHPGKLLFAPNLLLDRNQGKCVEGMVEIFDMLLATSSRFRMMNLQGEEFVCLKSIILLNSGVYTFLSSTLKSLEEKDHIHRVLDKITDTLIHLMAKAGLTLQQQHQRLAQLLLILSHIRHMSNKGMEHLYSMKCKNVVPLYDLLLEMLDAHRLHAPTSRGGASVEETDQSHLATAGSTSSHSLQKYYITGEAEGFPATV", "assay": "Displacement of [3H]estradiol from full length human ERalpha by competitive radiometric binding assay relative to estradiol"}, "MCF7": {"test_system": "MCF7", "assay": "Antiproliferative activity against human MCF7 cells assessed as reduction in cell viability incubated for 6 days by WST1 dye based assay", "format": "functional", "settings": "MCF7, 144 h"}, "Estrogen receptor": {"target": "T2, Estrogen receptor (Homo sapiens, UniProt P03372)", "T2 sequence (P03372 whole entry)": "T1 sequence (whole entry)", "assay": "Induction of ERalpha protein degradation in human MCF7 cells assessed as reduction in ERalpha protein levels incubated for 24 hrs by In-cell western assay", "format": "cell-based", "settings": "for DC50: mcf7, read-out: IC50 (the source's name)"}}}
{"compound": "O=C(NCCCCOc1ccc(C(=C2C3CC4CC(C3)CC2C4)c2ccc(O)cc2)cc1)[C@H]1C[C@@H]2C=C[C@H]1C2", "values": [{"measurement": "RBA", "setting": "[1]", "value": 37, "unit": "%"}, {"measurement": "IC50", "setting": "MCF7", "value": 9, "unit": "nM"}]}
{"compound": "O=C(NCCCCOc1ccc(C(=C2C3CC4CC(C3)CC2C4)c2ccc(O)cc2)cc1)C12CC3CC(CC1C3)C2", "values": [{"measurement": "IC50", "setting": "Estrogen receptor", "value": 2, "unit": "nM"}]}
{"compound": "O=C(NCCCCOc1ccc(C(=C2C3CC4CC(C3)CC2C4)c2ccc(O)cc2)cc1)C1CCCCC1", "values": [{"measurement": "DC50", "setting": "Estrogen receptor", "value": 0.4, "unit": "nM"}]}
{"compound": "O=C(NCCCOc1ccc(C(=C2C3CC4CC(C3)CC2C4)c2ccc(O)cc2)cc1)C12CC3CC(CC(C3)C1)C2", "values": [{"measurement": "DC50", "setting": "Estrogen receptor", "value": 3, "unit": "nM"}]}
